Measured values reported in patent US20050192347A1, “Urea and thiourea compounds and compositions for cholesterol management and related uses” (priority 2003, published 2005).

Tests used:
obese female Zucker rats = test: Oral daily treatment of obese female Zucker rats for fourteen days: serum lipids, glycemic control indicators, body weight; format: in vivo, rat; conditions: 14 days; for Glucose, Percent Change from Pre-treatment: blood, 6-hour fast; for Glucose, Percent Change from Pre-treatment / BHA, Percent Change from Pre-treatment / NEFA, Percent Change from Pre-treatment / HDL-C/nonHDL-C / HDL-C, Percent Change from Pre-treatment / Insulin, Percent Change from Pre-treatment / Non HDL-C, Percent Change from Pre-treatment / TC, Percent Change from Pre-treatment / TG, Percent Change from Pre-treatment: oral; for % wt. gain: oral gavage; for BHA, Percent Change from Pre-treatment: serum beta hydroxy butyric acid; for NEFA, Percent Change from Pre-treatment: serum non-esterified fatty acids; for HDL-C/nonHDL-C: serum ratio; for HDL-C, Percent Change from Pre-treatment / Insulin, Percent Change from Pre-treatment / Non HDL-C, Percent Change from Pre-treatment / TC, Percent Change from Pre-treatment / TG, Percent Change from Pre-treatment: serum
Procedure: In a number of different experiments, illustrative compounds A and A1 of the invention were administered daily at a dose of up to 100 mg/kg to chow-fed obese female Zucker rats for fourteen days in the morning by oral gavage in 1.5% carboxymethylcellulose/0.2% Tween-20 or 20% ethanol/80% polyethylene glycol (dosing vehicles). Animals were weighed daily. Animals were allowed free access to rodent chow and water throughout the study except on days of blood sampling where food was restricted for six hours prior to blood sampling. Blood glucose was determined after the 6-hour fast in the afternoon without anesthesia from a tail vein. Serum was also prepared from pretreatment blood samples subsequently obtained from the orbital venous plexus (with O2/CO2 anesthesia) and following the fourteenth dose at sacrifice from the heart following O2/CO2 anesthesia. Serums were assayed for lipoprotein cholesterol profiles, triglycerides, total cholesterol, NonHDL cholesterol, HDL cholesterol, the ratio of HDL cholesterol to that of Non-HDL cholesterol, insulin, non-esterified fatty acids, and beta hydroxy butyric acid. The percent body weight gain and the ratio of liver to body weight was also determined. These are shown as absolute values or as a percent change of the pretreatment values in Table 4. [drawing 300]

primary rat hepatocytes = test: Inhibition of lipid synthesis ([1-14C]-acetate incorporation) in primary cultures of rat hepatocytes; format: cell-based; conditions: 0-300 μM
Procedure: Compounds were tested for inhibition of lipid synthesis in primary cultures of rat hepatocytes. Male Sprague-Dawley rats were anesthetized with intraperitoneal injection of sodium pentobarbital (80 mg/kg). Rat hepatocytes were isolated essentially as described by the method of Seglen (Seglen, P. O. Hepatocyte suspensions and cultures as tools in experimental carcinogenesis. J. Toxicol. Environ. Health 1979, 5, 551-560). Hepatocytes were suspended in Dulbecco's Modified Eagles Medium containing 25 mM D-glucose, 14 mM HEPES, 5 mM L-glutamine, 5 mM leucine, 5 mM alanine, 10 mM lactate, 1 mM pyruvate, 0.2% bovine serum albumin, 17.4 mM non-essential amino acids, 20% fetal bovine serum, 100 nM insulin and 20 μg/mL gentamycin) and plated at a density of 1.5×10^5 cells/cm^2 on collagen-coated 96-well plates. Four hours after plating, media was replaced with the same media without serum. Cells were grown overnight to allow formation of monolayer cultures. Lipid synthesis incubation conditions were initially assessed to ensure the linearity of [1-^14C]-acetate incorporation into hepatocyte lipids for up to 4 hours. Hepatocyte lipid synthesis inhibitory activity was assessed during incubations in the presence of 0.25 μCi [1-^14C]-acetate/well (final radiospecific activity in assay is 1 Ci/mol) and 0, 1, 3, 10, 30, 100 or 300 μM of compounds for 4 hours. At the end of the 4-hour incubation period, medium was discarded and cells were washed twice with ice-cold phosphate buffered saline and stored frozen prior to analysis. To determine total lipid synthesis, 170 μl of MicroScint-E® and 50 μl water was added to each well to extract and partition the lipid soluble products to the upper organic phase containing the scintillant. Lipid radioactivity was assessed by scintillation spectroscopy in a Packard TopCount NXT.

[1] = Rattus norvegicus, Hepatocyte, 4 h

CC(C)(CO)CCCCNC(=O)NCCCCC(C)(C)CO [A, 1,3-bis-(6-hydroxy-5,5-dimethyl-hexyl)-urea]
Glucose, Percent Change from Pre-treatment (obese female Zucker rats; 100 mg/kg/day): 2%
% wt. gain (obese female Zucker rats; 100 mg/kg/day): 4%
BHA, Percent Change from Pre-treatment (obese female Zucker rats; 100 mg/kg/day): 172%
NEFA, Percent Change from Pre-treatment (obese female Zucker rats; 100 mg/kg/day): 8%
HDL-C/nonHDL-C (obese female Zucker rats; 100 mg/kg/day): 2.7
HDL-C, Percent Change from Pre-treatment (obese female Zucker rats; 100 mg/kg/day): 92%
Insulin, Percent Change from Pre-treatment (obese female Zucker rats; 100 mg/kg/day): 60%
Non HDL-C, Percent Change from Pre-treatment (obese female Zucker rats; 100 mg/kg/day): −5%
TC, Percent Change from Pre-treatment (obese female Zucker rats; 100 mg/kg/day): 50%
TG, Percent Change from Pre-treatment (obese female Zucker rats; 100 mg/kg/day): −31%

CC(C)(CO)CCCCNC(=O)NCCCC(C)(C)CO [Compound 213, 1-(5-Hydroxy-4,4-dimethylpentyl)-3-(6-hydroxy-5,5-dimethylhexyl)urea]
IC50 (primary rat hepatocytes; [1]): 34 µM

CC(C)(CO)CCCCNC(=O)NCCCc1ccccc1 [Compound 216, 1-(6-Hydroxy-5,5-dimethylhexyl)-3-(3-phenylpropyl)urea]
IC50 (primary rat hepatocytes; [1]): 51 µM

CC(C)(CO)CCCCNC(=O)NCCCCc1ccccc1 [Compound 217, 1-(6-Hydroxy-5,5-dimethylhexyl)-3-(4-phenylbutyl)urea]
IC50 (primary rat hepatocytes; [1]): 221 µM

CCOC(=O)CCCCCNC(=O)NCCCCC(C)(C)CO [Compound 219, Ethyl 6-(3-(6-hydroxy-5,5-dimethylhexyl)ureido)hexanoate]
IC50 (primary rat hepatocytes; [1]): 82 µM

CC(C)(CO)CCCCNC(=O)NCCCCC(C)(CO)c1ccccc1 (centres unmarked) [Compound 220, 1-(6-Hydroxy-5,5-dimethylhexyl)-3-(6-hydroxy-5-methyl-5-phenylhexyl)urea]
IC50 (primary rat hepatocytes; [1]): 8.8 µM

CC(CO)(CCCCNC(=O)NCCc1ccccc1)c1ccccc1 (centres unmarked) [Compound 222, 1-(6-Hydroxy-5-methyl-5-phenylhexyl)-3-phenethylurea]
IC50 (primary rat hepatocytes; [1]): 264 µM

CC(CO)(CCCCNC(=O)NCCCc1ccccc1)c1ccccc1 (centres unmarked) [Compound 223, 1-(6-Hydroxy-5-methyl-5-phenylhexyl)-3-(3-phenylpropyl)urea]
IC50 (primary rat hepatocytes; 4 hours): 77 µM
IC50 (primary rat hepatocytes; [1]): 137 µM

CCOC(=O)CCCCCNC(=O)NCCCCC(C)(CO)c1ccccc1 (centres unmarked) [Compound 225, Ethyl 6-(3-(6-hydroxy-5-methyl-5-phenylhexyl)ureido)hexanoate]
IC50 (primary rat hepatocytes; [1]): 128 µM

CC(CO)(CCCCCNC(=O)NCCCCC(C)(CO)c1ccccc1)c1ccccc1 (centres unmarked) [Compound 226, 1-(6-Hydroxy-5-methyl-5-phenylhexyl)-3-(7-hydroxy-6-methyl-6-phenylheptyl)urea]
IC50 (primary rat hepatocytes; [1]): 88 µM

CC(CO)(CCCCCNC(=O)NCCc1ccccc1)c1ccccc1 (centres unmarked) [Compound 227, 1-(7-Hydroxy-6-methyl-6-phenylheptyl)-3-phenethylurea]
IC50 (primary rat hepatocytes; [1]): 223 µM

CC(CO)(CCCCCNC(=O)NCCCc1ccccc1)c1ccccc1 (centres unmarked) [Compound 228, 1-(7-hydroxy-6-methyl-6-phenylheptyl)-3-(3-phenylpropyl)urea]
IC50 (primary rat hepatocytes; [1]): 101 µM

COC(=O)CCCNC(=O)NCCCCCC(C)(CO)c1ccccc1 (centres unmarked) [Compound 230]
IC50 (primary rat hepatocytes; [1]): 103 µM

CC(CO)(CCCCCNC(=O)NCCCCCC(C)(CO)c1ccccc1)c1ccccc1 (centres unmarked) [Compound 231, 1,3-Bis(7-hydroxy-6-methyl-6-phenylheptyl)urea]
IC50 (primary rat hepatocytes; [1]): 39 µM

CC(C)(CO)CCCCNC(=S)NCCCCC(C)(C)CO [Compound A1, 1,3-bis-(6-hydroxy-5,5-dimethylhexyl)-thiourea]
Glucose, Percent Change from Pre-treatment (obese female Zucker rats; 30 mg/kg/day): −4%
Glucose, Percent Change from Pre-treatment (obese female Zucker rats; 100 mg/kg/day): −15%
% wt. gain (obese female Zucker rats; 30 mg/kg/day): 10%
% wt. gain (obese female Zucker rats; 100 mg/kg/day): 7%
BHA, Percent Change from Pre-treatment (obese female Zucker rats; 30 mg/kg/day): 283%
BHA, Percent Change from Pre-treatment (obese female Zucker rats; 100 mg/kg/day): 305%
NEFA, Percent Change from Pre-treatment (obese female Zucker rats; 30 mg/kg/day): 11%
NEFA, Percent Change from Pre-treatment (obese female Zucker rats; 100 mg/kg/day): 34%
HDL-C/nonHDL-C (obese female Zucker rats; 30 mg/kg/day): 2.0
HDL-C/nonHDL-C (obese female Zucker rats; 100 mg/kg/day): 1.3
HDL-C, Percent Change from Pre-treatment (obese female Zucker rats; 30 mg/kg/day): −11%
Insulin, Percent Change from Pre-treatment (obese female Zucker rats; 30 mg/kg/day): −29%
Non HDL-C, Percent Change from Pre-treatment (obese female Zucker rats; 30 mg/kg/day): 32%
TC, Percent Change from Pre-treatment (obese female Zucker rats; 30 mg/kg/day): −9%
TG, Percent Change from Pre-treatment (obese female Zucker rats; 30 mg/kg/day): 7%
HDL-C, Percent Change from Pre-treatment (obese female Zucker rats; 100 mg/kg/day): 2%
Insulin, Percent Change from Pre-treatment (obese female Zucker rats; 100 mg/kg/day): 10%
Non HDL-C, Percent Change from Pre-treatment (obese female Zucker rats; 100 mg/kg/day): −29%
TC, Percent Change from Pre-treatment (obese female Zucker rats; 100 mg/kg/day): −7%
TG, Percent Change from Pre-treatment (obese female Zucker rats; 100 mg/kg/day): −15%
